The record followed here is patent US8653238B2, “Compositions and methods for transport of molecules with enhanced release properties across biological barriers” (The Board of Trustees of the Leland Stanford Junior …, priority 2006, dated 2014).

Each structure is given as a SMILES string. Values joined by “and” are separate entries in the source; they are usually repeats but may differ in a detail not shown here. Equal values may be shown once. Non-standard residues stand in square brackets, D forms with d. Residues, ends and D or L forms follow the SMILES beside them. *: point of attachment. Paclitaxel(2'-OCO(CH2)3S) = CC(=O)O[C@H]1C(=O)[C@@]2(C)[C@H]([C@H](OC(=O)c3ccccc3)[C@]3(O)C[C@H](OC(=O)[C@H](OC(=O)CCCS*)[C@@H](NC(=O)c4ccccc4)c4ccccc4)C(C)=C1C3(C)C)[C@]1(OC(C)=O)CO[C@@H]1C[C@@H]2O; X1 = O=C(OCCCS*)Oc1ccc2nc(C3=N[C@@H](C(=O)O)CS3)sc2c1

One data set in a line: physchem. The following applies: buffer, pH 7.4.
In data set [1] the test system is PC3M-luc prostate cancer cell line stably transfected with luciferase. Description: Cellular assay for luciferin release from conjugates (Example 6). The data set is classed as cell-based. On the procedure: The PC3M-luc prostate tumor cell line (Jenkins et al., Clin. Exp. Metastasis 20:733 (2003)), was plated at 60,000 cells per well in 96 well, flat bottomed plates twelve hours prior to the assay. […] The cells were washed to remove extracellular luciferin or conjugate, resuspended with the appropriate buffer, and the resultant luminescence measured using a charged coupled device camera and Living Image software (IVIS200, Xenogen Corp., Alameda, Calif.) (see Cao et al., Proc. Natl. Acad. Sci. U.S.A. 101:221 (2004)).

Data set [2] deals with transgenic (FVB-luc+) mice. Description: Bioluminescence after intradermal injection into luciferase transgenic mice. The data set is classed as in vivo.
The test system of a further data set is FVB-luc+ mice skin. Description: Bioluminescence after topical application to skin of luciferase transgenic mice (Example 7). It counts as in vivo.
In a further data set the test system is OVCA429TP. Description: cells. On the procedure:
(§1) FIG. 12 depicts an assay for GI50 (nM) of 429 Ovarian Cancer Lines, 20 min pulse with indicated compounds. The cells were pulsed for 20 min, washed (×2) and incubated for 72 hr in fresh media. For each compound, three bars are depicted, for 429 cells, 429 T cells, and 429 TP cells (from left to right).
(§2) The cells were pulsed with conjugates administered in PBS (pH=7.4) and Taxol (administered in DMSO) for 20 min. Then the solution was removed, the cells were washed twice and incubated in fresh media for 72 hr. The presence of live cells were measured based on the standard MTS assay.

The subject of a further data set is OVCA429T. Description: cells. The procedure:
as §1, §2

For another data set, the system named is OVCA429. Description: cells. On the procedure:
as §1, §2

[3] abbreviates: 429TP cells (Taxol resistant, unknown mechanism), 20 min pulse, 72 hr.
Where [4] appears, read: 429T cells (Taxol resistant, PGP overexpression), 20 min pulse, 72 hr.
Where [5] appears, read: 429 cells, 20 min pulse, washed ×2, 72 hr in fresh media, conjugates in PBS pH 7.4, taxol in DMSO.

Text for FVB-luc+ mice skin: For imaging assays to assess skin transport, hair was removed from the animals by clipping with a large hair clipper on the right flank. Subsequently, Nair® (NAIR is a registered trademark of Church & Dwight Co., Inc., Princeton N.J., USA for a depilatory cream) was applied for 90 seconds, wiped off, and the animals were washed well with wet paper towels and dried. Five days were allowed for stratum corneum regrowth before the mice were used for imaging.
Formulations for topical application of conjugates were prepared as follows. […] Luminescence was observed over approximately 60 minutes.
In vivo bioluminescence imaging was carried out as follows. Animals were imaged in a dark chamber using a cooled CCD camera (IVIS100 Xenongen Corp.) as previously described 45 and the data were analyzed using LivingImage software (Xenogen Corp.). Data are expressed as photons/ster radian/sec for each region of interest such that the data are not dependent on camera settings, chamber geometry or integration time.
The most reproducible method to evaluate the relative performance of transporters and linkers was to apply a single drop of a solution of each conjugate to the flank of anesthetized FVB-luc+ mice. The drop was allowed to remain in contact with the skin for the duration of the assay during which luminescence from the animal was monitored. […]
Experimental for physchem: The stabilities of the conjugates were assayed by measuring their decomposition when incubated in HEPES buffered saline (HBS, pH 7.4) at 37° C. using analytical HPLC. […] At appropriate time points 20 μl of the solutions were removed and analyzed by reverse phase HPLC. The percent decomposition was calculated from the integrated peak areas of the conjugate, the internal standard, and the various decomposition products.

For the molecule `CC(=O)N[C@H](CSSCCOC(=O)Oc1ccc2nc(C3=N[C@@H](C(=O)O)CS3)sc2c1)C(=O)N[C@H](CCCNC(=N)N)C(=O)N[C@H](CCCNC(=N)N)C(=O)N[C@H](CCCNC(=N)N)C(=O)N[C@H](CCCNC(=N)N)C(=O)N[C@H](CCCNC(=N)N)C(=O)N[C@H](CCCNC(=N)N)C(=O)N[C@H](CCCNC(=N)N)C(=O)N[C@H](CCCNC(=N)N)C(N)=O` [5a], the half-life (in general, the time needed for the level to fall by half in the phase considered) at 0.8 mg/ml in “physchem” is 3 h.

As for `CC(=O)N[C@H](CSSCCCOC(=O)Oc1ccc2nc(C3=N[C@@H](C(=O)O)CS3)sc2c1)C(=O)N[C@H](CCCNC(=N)N)C(=O)N[C@H](CCCNC(=N)N)C(=O)N[C@H](CCCNC(=N)N)C(=O)N[C@H](CCCNC(=N)N)C(=O)N[C@H](CCCNC(=N)N)C(=O)N[C@H](CCCNC(=N)N)C(=O)N[C@H](CCCNC(=N)N)C(=O)N[C@H](CCCNC(=N)N)C(N)=O` [5b] (Ac-[dC](X1)[dR][dR][dR][dR][dR][dR][dR][dR]-NH2), the “time for luminescent signal to reach background” value in data set [1] (1 minute pulse, HBS pH 7.4) is given as “approximately 1000 seconds”. Further, in data set [2] (intradermal injection), the “time over which signal increases after injection” value came out at 20 min. Moreover, the “area under the curve of bioluminescence” value in data set [2] (intradermal injection of 100 uL of 200 nM in HBS pH 7.4, two different animals) was 2.54 ×10^10 photons and 2.01 ×10^10 photons. The “theoretical amount of luciferin in the injected sample accounted for” value in data set [2] (intradermal injection, photons emitted in 60 minutes × 400 molecules per photon) is on record as “Approximately 80%”. For the same molecule, the “amount of luciferin released in one hour” value in the data set with FVB-luc+ mice skin (15 μL of 5 mM in 75% PEG 400/25% 200 mM NaOAc pH 6.0) is 3.62e-12 mol. Moreover, in the data set on FVB-luc+ mice skin (15 μL of 5 mM in 75% PEG 400/25% 200 mM NaOAc pH 6.0, skin thickness 0.69 mm), the “cumulative intradermal concentration of luciferin over one hour” value worked out at 47 nM. In addition, the half-life at 0.8 mg/ml in “physchem” is 11 h.

As for `CC(=O)N[C@H](CSSCCCC(=O)O[C@@H](C(=O)O[C@H]1C[C@@]2(O)[C@@H](OC(=O)c3ccccc3)[C@@H]3[C@]4(OC(C)=O)CO[C@@H]4C[C@H](O)[C@@]3(C)C(=O)[C@H](OC(C)=O)C(=C1C)C2(C)C)[C@@H](NC(=O)c1ccccc1)c1ccccc1)C(=O)N[C@H](CCCNC(=N)N)C(=O)N[C@H](CCCNC(=N)N)C(=O)N[C@H](CCCNC(=N)N)C(=O)N[C@H](CCCNC(=N)N)C(=O)N[C@H](CCCNC(=N)N)C(=O)N[C@H](CCCNC(=N)N)C(=O)N[C@H](CCCNC(=N)N)C(=O)N[C@H](CCCNC(=N)N)C(N)=O` [Compound 62, Taxol C2′ Octaarginine Conjugate 62] (Ac-[dC](Paclitaxel(2'-OCO(CH2)3S))[dR][dR][dR][dR][dR][dR][dR][dR]-NH2), the GI50 (usually the concentration giving 50% growth inhibition) came to 101 nM in the data set on OVCA429TP (setting [3]), 420 nM with OVCA429T (setting [4]) and 12 nM in the data set with OVCA429 (setting [5]).

For the molecule `CC(=O)N[C@H](CSSCCCC(=O)O[C@H]1C[C@H]2OC[C@@]2(OC(C)=O)[C@H]2[C@H](OC(=O)c3ccccc3)[C@]3(O)C[C@H](OC(=O)[C@H](O)[C@@H](NC(=O)c4ccccc4)c4ccccc4)C(C)=C([C@@H](OC(C)=O)C(=O)[C@]12C)C3(C)C)C(=O)N[C@H](CCCNC(=N)N)C(=O)N[C@H](CCCNC(=N)N)C(=O)N[C@H](CCCNC(=N)N)C(=O)N[C@H](CCCNC(=N)N)C(=O)N[C@H](CCCNC(=N)N)C(=O)N[C@H](CCCNC(=N)N)C(=O)N[C@H](CCCNC(=N)N)C(=O)N[C@H](CCCNC(=N)N)C(N)=O` [Compound 67, Taxol C7 Octaarginine Conjugate 67], the values for the GI50 in the data set with OVCA429TP (setting [3]), in the data set with OVCA429T (setting [4]) and in the data set on OVCA429 (setting [5]) were 93 nM, 225 nM and 125 nM, respectively.

With `O=C(O)[C@H]1CSC(c2nc3ccc(O)cc3s2)=N1` [luciferin, reference compound], in data set [1] (K+HBS versus HBS, 25 μM luciferin), the “change of luminescence in K+HBS” value was “increased slightly”. In addition, the “area under the curve relative to 200 nM dose” value in data set [2] (mouse, in vivo) was found to be 10.24%. The “area under the curve of bioluminescence” value in data set [2] (mouse, in vivo, pH 7.4) is 3.02×10^10 photons and 3.11×10^9 photons.

Take `CC(=O)O[C@H]1C(=O)[C@@]2(C)[C@H]([C@H](OC(=O)c3ccccc3)[C@]3(O)C[C@H](OC(=O)[C@H](O)[C@@H](NC(=O)c4ccccc4)c4ccccc4)C(C)=C1C3(C)C)[C@]1(OC(C)=O)CO[C@@H]1C[C@@H]2O` [taxol, paclitaxel, reference compound]: the concentration for 50% growth inhibition (GI50) in the data set with OVCA429TP (Homo sapiens) came out at 8480 nM; in the data set on OVCA429T (Homo sapiens) it was 15800 nM; with OVCA429 (Homo sapiens, OVCA429, pH 7.4) it was 147 nM.
